Results as given in patent US20250154212A1, “METHOD OF DISRUPTING MEMORY AND LIPOPEPTIDE FOR USE IN SUCH METHOD” (The Research Foundation for The State University of New York, priority 2023, published 2025).
Entries after “also recorded” stand apart in the source; their conditions may differ. Where no end group is shown, it is not given here. The star is where a group is joined. Myristoyl = CCCCCCCCCCCCCC(=O)*

Tested on: late-LTP in CA1 st. radiatum of hippocampal slices
Test: Late-LTP recording (fEPSP) in hippocampal slices of wild-type mice
Assay type: cell-based, mouse
Details: for effect on established late-LTP (fEPSP slope), tetanized pathway / effect on baseline synaptic transmission, untetanized pathway: wild-type mice; for effect on established late-LTP (fEPSP slope), tetanized pathway: 10 μM applied to the bath 3 h post-tetanization; for effect on baseline synaptic transmission, untetanized pathway: 10 μM in bath; for potentiation after drug washout: drug applied 3 h starting 3 h post-tetanization, then 4-h washout
Procedure: Acute mouse hippocampal slices (450 μm) were prepared as previously described (17, 73). Hippocampi from 2-6-month-old male C57/B6 or PKM ζ-null mice as previously described (17) were dissected, bathed in ice-cold dissection buffer, and sliced with a McIlwain tissue slicer in a cold room (4° C.). The dissection buffer contained (in mM): 125 NaCl, 2.5 KCl, 1.25 NaH2PO4, 26 NaHCO3, 11 glucose, 10 MgCl2, and 0.5 CaCl2), and was bubbled with 95% O2/5% CO2 to maintain pH at 7.4. After dissection the slices were immediately transferred into an Oslo-type interface recording chamber (31.5±1° C.) (73). The recording superfusate consisted of (in mM): 118 NaCl, 3.5 KCl, 2.5 CaCl2), 1.3 MgSO4, 1.25 NaH2PO4, 24 NaHCO3, and 15 glucose, bubbled with 95% O2/5% CO2, with a flow rate of 0.5 ml/min. In a subset of experiments a custom-made recirculation system employing piezoelectric pumps was used for recycling the superfusate (Bartels Mikrotechnik GmbH, Dortmund, Germany) (73).
Field EPSPs were recorded with a glass extracellular recording electrode (2-5 M (2) placed in the CA1 st. radiatum, and concentric bipolar stimulating electrodes (CBBRE75 and 30200; FHC, Bowdoin, ME) were placed on either side within CA3 or CA1. Test stimulation rate was once every 30 sec, alternating every 15 sec between stimulating electrodes. Based upon a pre-established exclusion criterion, a slice was not used if fEPSP spike threshold was <2 mV on initial input-output analysis. Pathway independence was confirmed by the absence of paired-pulse facilitation between the two pathways. A single stimulating electrode was used for PLA/immunocytochemistry with a test stimulation rate of once every 30 sec. The high-frequency stimulation, optimized to produce a relatively rapid onset of protein synthesis-dependent late-LTP (74), consisted of two 100 Hz-1 s tetanic trains, at 25% of spike threshold, spaced 20 sec apart. The maximum slope of the rise of the fEPSP was analyzed on a PC using the WinLTP data acquisition program (75).
Replicates are biological because there is only one measurement for each sample. Drug/vehicle comparisons were performed blindly. Sample sizes vary for the different experimental approaches (biochemistry, slice physiology, and behavior) and were established by power analyses based on effect size estimates from published work or preliminary experiments. The observed effect sizes for binary comparisons are reported as Cohen's d and as η^2p for ANOVA effects. Multi-factor comparisons were performed using ANOVA with repeated measures, as appropriate. Two-population Student's/tests were performed to compare protein immunofluorescence intensity between control and potentiated hippocampal slices. For LTP experiments, the responses were first normalized to the mean of the 30 min period prior to tetanization (or equivalent in control pathways), and then the means over 5 min periods were used for statistical comparisons (e.g., pre-tetanization, beginning and end of drug application). Paired Student's t tests were used to compare the change in the potentiated response at time points at the beginning and end of drug application. The degrees of freedom for the critical t values of the/tests and the F values of the ANOVAs are reported as subscripts. Post-hoc multiple comparisons were performed by Newman-Keuls tests as appropriate. Statistical significance was accepted at P<0.05 or appropriate Bonferroni correction for multiple comparisons.
Now we can test the central prediction of the KIBRA-PKMζ maintenance hypothesis that decoupling PKMζ from KIBRA reverses potentiation of activated synapses. We simultaneously recorded two independent synaptic pathways in st. radiatum within a hippocampal slice. We stimulated one pathway by high-frequency tetanization to induce late-LTP, and in the second pathway we recorded low-frequency test fEPSP responses for the equivalent time. […]

| Compound | effect on established late-LTP (fEPSP slope), tetanized pathway | effect on established late-LTP (fEPSP slope), tetanized pathway (listed as z-stat) | effect on baseline synaptic transmission, untetanized pathway | effect on baseline synaptic transmission, untetanized pathway (listed as z-stat) | potentiation after drug washout (wild-type) | potentiation after drug washout (wild-type, listed as z-stat) | effect on late-LTP when drug is present at tetanization (wild-type, first pathway, 150 min post-tetanization with drug) | late-LTP in second pathway after washout (wild-type, tetanized after 1-h washout) |
| --- | --- | --- | --- | --- | --- | --- | --- | --- |
| O=S(=O)(O)c1cc(O)c2c(S(=O)(=O)O)cc(S(=O)(=O)O)cc2c1 [ζ-stat, 1-naphthol-3,6,8-trisulphonic acid] | reverses late-LTP maintenance | reverses late-LTP | without measurably affecting synaptic transmission | no effect on baseline synaptic transmission | reversal of potentiation persisted | potentiation does not return | suppresses late-LTP | late-LTP is induced and maintained in second pathway |
| myr-N-FVRNSLERRSVRMKRPS-C (Myristoyl-FVRNSLERRSVRMKRPS) [K-ZAP] | reverses late-LTP maintenance | – | no measurable effect on baseline synaptic transmission; also recorded: no effect on untetanized pathway | – | – | – | – | – |
